Key:
Format in all cases: functional
Parameters in all cases: concentration or dose not given beside the values
[1] = tested on: Pyricularia oryzae; assay: Antifungal activity against Magnaporthe oryzae assessed as disease control
[2] = tested on: Spodoptera exigua; assay: Insecticidal activity against Spodoptera exigua assessed as mortality
[3] = tested on: Zymoseptoria tritici; assay: Antifungal activity against Zymoseptoria tritici assessed as disease control

Compound	Activity [1] [%]	Activity [2] [%]	Activity [3] [%]
c1ccc(-c2nnc(C3CC(c4ccncc4)=NO3)o2)cc1 (stereo not drawn)	0	0	0
CC1(c2nnc(-c3cccc(Cl)c3)o2)CC(c2c(Cl)cccc2Cl)=NO1 (stereo not drawn)	50	50	0
CC1(c2nnc(-c3cccc(Cl)c3)o2)CC(c2ccc(F)cc2)=NO1 (stereo not drawn)	50	0	10
Clc1cccc(C2=NOC(c3nnc(-c4ccccc4)o3)C2)c1 (stereo not drawn)	30	0	0
Clc1cccc(Cl)c1C1=NOC(c2nnc(-c3ccccc3)o2)C1 (stereo not drawn)	40	17	30
CC1(c2nnc(-c3cccc(Cl)c3)o2)CC(c2ccccc2)=NO1 (stereo not drawn)	40	17	10
Clc1ccc(C2=NOC(c3nnc(-c4ccccc4)o3)C2)cc1 (stereo not drawn)	0	17	0
CC1(c2nnc(-c3ccc(Cl)cc3)o2)CC(c2cccc(Cl)c2)=NO1 (stereo not drawn)	50	50	10
CC1(c2nnc(-c3cccc(Cl)c3)o2)CC(c2ccc(Cl)cc2)=NO1 (stereo not drawn)	40	50	0
CC1(c2nnc(-c3ccc(Cl)cc3)o2)CC(c2ccncc2)=NO1 (stereo not drawn)	30	0	70
CC1(c2nnc(-c3cccc(Cl)c3)o2)CC(c2cccc(Cl)c2)=NO1 (stereo not drawn)	30	33	0
CC1(c2nnc(Cc3ccccc3)o2)CC(c2ccc([N+](=O)[O-])cc2)=NO1 (stereo not drawn)	30	17	30
Fc1ccc(C2=NOC(c3nnc(-c4ccccc4)o3)C2)cc1 (stereo not drawn)	30	17	0
CC1(c2nnc(-c3ccc(Cl)cc3)o2)CC(c2ccc(Cl)cc2)=NO1 (stereo not drawn)	50	17	0
CC1(c2nnc(Cc3ccccc3)o2)CC(c2c(Cl)cccc2Cl)=NO1 (stereo not drawn)	0	0	0
CC1(c2nnc(-c3ccc(Cl)cc3)o2)CC(c2ccc([N+](=O)[O-])cc2)=NO1 (stereo not drawn)	30	0	40

— ChEMBL document CHEMBL3046154, “Synthesis and biological activity of 2-(4,5-dihydroisoxazol-5-yl)-1,3,4-oxadiazoles” (2009)
